Laboratory results from patent US10858359B2, “Heterocyclic ring derivatives useful as SHP2 inhibitors” (priority 2016, dated 2020).
Where a name gives a salt, the structure may show the parent alone.

Columns and labels:
SHP2 [1] = target: T1, SHP2 (Homo sapiens (Human), UniProt Q06124); assay: Phosphatase assay (single dose inhibition), DiFMUP substrate; format: biochemical; conditions: compound at 0.1 μM (100 nM); SHP2 0.5 nM activated with dPEG8 peptide; DiFMUP 12 μM; relative to DMSO control
Description: DMSO [0.5% (v/v)] or compounds (100 nM) were added to the mixture and incubated for 30 min at room temperature. […] The experiment is carried out in triplicate. The value for the control sample (DMSO) was set to 100%, and the values for the compound-treated samples were expressed as activity relative to the control sample.

KYSE-520 cells = assay: Cell proliferation assay (MTS/PMS); format: cell-based; conditions: Homo sapiens, 192 h, 1500 cells/well, RPMI-1640 3% FBS, read at day 8
Description: For drug treatment, compounds of the invention at various concentrations were added 24 hours after cell plating. At day 8, 50 μL MTS/PMS reagents (Promega/Sigma) were added, and the absorbance value was determined according to the supplier's instruction (Promega).

SHP2 [2] = target: T1, SHP2; assay: Phosphatase assay (IC50), DiFMUP substrate; format: biochemical; conditions: SHP2 0.5 nM activated with dPEG8 peptide; DiFMUP 12 μM; compounds 0.3 nM to 1 μM
Description: DMSO [0.5% (v/v)] or compounds (concentrations ranging from 0.3 nM to 1 μM) were added to the mixture and incubated for 30 min at room temperature.

T1 sequence (Q06124 whole entry): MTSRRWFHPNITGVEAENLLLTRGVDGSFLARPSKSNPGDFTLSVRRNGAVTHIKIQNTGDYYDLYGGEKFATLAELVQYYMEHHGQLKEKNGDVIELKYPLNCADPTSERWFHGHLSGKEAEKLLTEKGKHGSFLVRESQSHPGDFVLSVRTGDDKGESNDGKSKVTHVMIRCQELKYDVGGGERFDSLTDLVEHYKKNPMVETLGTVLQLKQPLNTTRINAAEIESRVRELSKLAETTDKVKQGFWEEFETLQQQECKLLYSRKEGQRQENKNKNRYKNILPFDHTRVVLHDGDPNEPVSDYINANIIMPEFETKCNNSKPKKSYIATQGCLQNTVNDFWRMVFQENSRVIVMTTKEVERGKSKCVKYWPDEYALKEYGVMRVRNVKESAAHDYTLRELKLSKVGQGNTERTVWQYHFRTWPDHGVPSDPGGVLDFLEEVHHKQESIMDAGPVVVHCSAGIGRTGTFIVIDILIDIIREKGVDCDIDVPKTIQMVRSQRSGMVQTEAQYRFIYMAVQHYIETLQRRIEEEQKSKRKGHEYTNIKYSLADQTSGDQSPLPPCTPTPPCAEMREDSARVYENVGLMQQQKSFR

Compound	inhibition at 0.1 µM (SHP2 [1]) [%]	IC50 (KYSE-520 cells) [µM]	IC50 (SHP2 [2]) [µM]
Cc1ccc(C(=O)C(=O)Nc2cccc(Sc3ncc(N4CCC(C)(N)CC4)nc3N)c2Cl)cc1 [Example 31, N-(3-((3-amino-5-(4-amino-4-methylpiperidin-1-yl)pyrazin-2-yl)thio)-2-chlorophenyl)-2-oxo-2-(p-tolyl)acetamide]	53		
CN(C)C(=O)C(=O)c1ccc(C(=O)Nc2cccc(Sc3ncc(N4CCC(C)(N)CC4)nc3N)c2Cl)cc1 [Example 3, N-(3-((3-amino-5-(4-amino-4-methylpiperidin-1-yl)pyrazin-2-yl)thio)-2-chlorophenyl)-4-(2-(dimethylamino)-2-oxoacetyl)benzamide]	60		
Nc1nc(N2CCC3(CC2)COC[C@H]3N)cnc1Sc1cccc2c1C(F)(F)C(=O)N2 [Example 8, (S)-4-((3-amino-5-(4-amino-2-oxa-8-azaspiro[4.5]decan-8-yl)pyrazin-2-yl)thio)-3,3-difluoroindolin-2-one]	76	26.4	0.0214
CC(=O)n1ccc2c(Sc3ncc(N4CCC5(CC4)COC[C@H]5N)nc3N)cccc21 [Example 43, (S)-1-(4-((3-amino-5-(4-amino-2-oxa-8-azaspiro[4.5]decan-8-yl)pyrazin-2-yl)thio)-1H-indol-1-yl)ethanone]	43		
CN(C)C(=O)C(=O)Nc1cccc(Sc2ncc(N3CCC(C)(N)CC3)nc2N)c1Cl [Example 29, N^1-(3-((3-amino-5-(4-amino-4-methylpiperidin-1-yl)pyrazin-2-yl)thio)-2-chlorophenyl)-N^2,N^2-dimethyloxalamide]	47		
Nc1nc(N2CCC3(CC2)COC[C@H]3N)cnc1Sc1cccc2[nH]cc(F)c12 [Example 40, (S)-8-(6-amino-5-((3-fluoro-1H-indol-4-yl)thio)pyrazin-2-yl)-2-oxa-8-azaspiro[4.5]decan-4-amine]	71		0.0406
C=CC(=O)Nc1cccc(Sc2ncc(N3CCC(C)(NC(=O)OC(C)(C)C)CC3)nc2N)c1Cl [Example 32, tert-butyl (1-(5-((3-acrylamido-2-chlorophenyl)thio)-6-aminopyrazin-2-yl)-4-methylpiperidin-4-yl)carbamate]	49		
CC(=O)N1CC(F)(F)c2c(Sc3ncc(N4CCC(C)(CNC(=O)OC(C)(C)C)CC4)nc3N)cccc21 [Example 13, tert-butyl ((1-(5-((1-acetyl-3,3-difluoroindolin-4-yl)thio)-6-aminopyrazin-2-yl)-4-methylpiperidin-4-yl)methyl)carbamate]		20.6	
Nc1nc(N2CCC3(CC2)C(=O)N2CCCC2C3N)cnc1Sc1ccnc(N)c1Cl (centres unmarked) [Example 75, 1′-amino-1-(6-amino-5-((2-amino-3-chloropyridin-4-yl)thio)pyrazin-2-yl)tetrahydrospiro[piperidine-4,2′-pyrrolizin]-3′(1′H)-one]	35		
CN(C)C(=O)C(=O)Nc1cccc(Sc2ncc(N3CCC4(CC3)COC[C@H]4N)nc2N)c1Cl [Example 1, (S)-N1-(3-((3-amino-5-(4-amino-2-oxa-8-azaspiro[4.5]decan-8-yl)pyrazin-2-yl)thio)-2-chlorophenyl)-N2,N2-dimethyloxalamide hydrochloride]		15.9	
CN(C)C(=O)C(=O)c1ccc(C(=O)Nc2nccc(Sc3ncc(N4CCC(C)(CN)CC4)nc3N)c2Cl)cc1 [Example 35, N-(4-((3-amino-5-(4-(aminomethyl)-4-methylpiperidin-1-yl)pyrazin-2-yl)thio)-3-chloropyridin-2-yl)-4-(2-(dimethylamino)-2-oxoacetyl)benzamide]	30		
Nc1nc(N2CCC3(CC2)COC[C@H]3N)cnc1Sc1ccnc2[nH]ccc12 [Example 38, (S)-8-(5-((1H-pyrrolo[2,3-b]pyridin-4-yl)thio)-6-aminopyrazin-2-yl)-2-oxa-8-azaspiro[4.5]decan-4-amine]	30		
CN(C)C(=O)C(=O)Nc1cccc(Sc2ncc(N3CCC(C)(CN)CC3)nc2N)c1Cl [Example 20, N^1-(3-((3-amino-5-(4-(aminomethyl)-4-methylpiperidin-1-yl)pyrazin-2-yl)thio)-2-chlorophenyl)-N^2,N^2-dimethyloxalamide]	57		
CC(=O)N1CCc2c(Sc3ncc(N4CCC5(CC4)COC[C@H]5N)nc3N)cccc21 [Example 72, (S)-1-(4-((3-amino-5-(4-amino-2-oxa-8-azaspiro[4.5]decan-8-yl)pyrazin-2-yl)thio)indolin-1-yl)ethanone]	31		
Nc1nc(N2CCC3(CC2)COC[C@H]3N)cnc1Sc1cccc2[nH]ccc12 [Example 42, (S)-8-(5-((1H-indol-4-yl)thio)-6-aminopyrazin-2-yl)-2-oxa-8-azaspiro[4.5]decan-4-amine]	58		
CN(C)C(=O)C(=O)c1ccc(C(=O)Nc2nccc(Sc3ncc(N4CCC(C)(N)CC4)nc3N)c2Cl)cc1 [Example 34, N-(4-((3-amino-5-(4-amino-4-methylpiperidin-1-yl)pyrazin-2-yl)thio)-3-chloropyridin-2-yl)-4-(2-(dimethylamino)-2-oxoacetyl)benzamide]	37		
Nc1nc(N2CCC3(CC2)COC[C@H]3N)cnc1Sc1ccnc2c1C(F)(F)C(=O)N2 [Example 10, (S)-4-((3-amino-5-(4-amino-2-oxa-8-azaspiro[4.5]decan-8-yl)pyrazin-2-yl)thio)-3,3-difluoro-1H-pyrrolo[2,3-b]pyridin-2(3H)-one]	81		0.03
CN1C(=O)C(F)(F)c2c(Sc3ncc(N4CCC5(CC4)COC[C@H]5N[S@+]([O-])C(C)(C)C)nc3N)cccc21 [Example 11, (R)-N-((S)-8-(6-amino-5-((3,3-difluoro-1-methyl-2-oxoindolin-4-yl)thio)pyrazin-2-yl)-2-oxa-8-azaspiro[4.5]decan-4-yl)-2-methylpropane-2-sulfinamide]		12	
CN1C(=O)C(F)(C(F)(F)F)c2c(Sc3ncc(N4CCC5(CC4)COC[C@H]5N)nc3N)cccc21 (stereo partly drawn) [Example 58, 4-((3-amino-5-((S)-4-amino-2-oxa-8-azaspiro[4.5]decan-8-yl)pyrazin-2-yl)thio)-3-fluoro-1-methyl-3-(trifluoromethyl)indolin-2-one]	61		
Nc1nc(N2CCC3(CC2)CC2CC2C3N)cnc1Sc1ccnc(N)c1Cl (centres unmarked) [Example 74, 1′-(6-amino-5-((2-amino-3-chloropyridin-4-yl)thio)pyrazin-2-yl)spiro[bicyclo[3.1.0]hexane-3,4′-piperidin]-2-amine]	75	3.38	0.0083
